{"source": "patent US12478693B2", "about": "“Compositions and methods for detection of traumatic brain injury” (Amydis, Inc., priority 2018, dated 2025)", "format_in_all_cases": "binding", "key": {"[1]": {"test_system": "amyloid-beta (Aβ) deposits in human retinal tissue", "test": "Ex vivo fluorescence staining of post-mortem human retina with ASF probe", "conditions": "AD and cognitively normal patients, listed as ASF", "procedure": "Post-mortem retinal tissue and brains of humans with confirmed or probable Alzheimer's disease (AD) were obtained and examined by staining amyloid-beta (A3) with a test amyloid sensitive fluorescent probe (ASF), Compound 1. This example was conducted to determine if the ASF could identify patients with amyloid burden in the brain through fluorescence inspection of retinas stained with the ASF.\nWhile this example could observe these deposits in both AD (panels A-B) and cognitively normal patients (panels C-D), there is a qualitative correlation between the density of these deposits in the retina and the degree of amyloidosis in the brain (as estimated by immunohistochemistry (IHC) with anti-Aβ antibodies).\nIHC staining of retinal cryosections provided further evidence for the existence of Aβ in retinal deposits with similar location, size, and morphology as the deposits found in retinal flat mounts stained with the ASF."}, "[2]": {"test_system": "amyloid beta in retinal tissue", "test": "Staining of retinal tissue of TBI blast mouse model", "conditions": "for fluorescent labelling of retinal Aβ deposits: blast mouse model, 24 hours after injury; for fluorescent labelling of retinal tissue: non-injured (normal) mouse", "procedure": "This example was conducted to determine whether the ASF Compound 1 could detect AR in the retina of a TBI mouse model after injury.\nRetinal tissue of a blast mouse model 24 hours after injury and a non-injured mouse were stained with the ASF and co-stained with an […] (6E10)."}, "[3]": {"test_system": "amyloid beta in brain tissue", "test": "Staining of brain tissue of TBI blast mouse model", "excerpt": "Based on this evidence, this example further attempted to confirm that […] was also detected in the brain tissue of the same TBI blast mouse model. […] The evidence of Aβ in the brain tissue complements what was found in the retinal tissue of the same injured mouse. It also supports previous studies of the correlation between the brain and retina in the accumulation of Aβ."}, "[4]": {"test_system": "aggregated proteins in retina", "test": "Retina staining after controlled cortical impact (Example 3)", "conditions": "3 month old C5BL/6 mice, 24 h after CCI", "excerpt": "3 month old C5BL/6 mice were briefly anesthetized with isoflurane and placed in a stereotaxic frame. Mice were subjected to craniotomy over the right primary and secondary motor cortex and parietal-temporal cortex (+1 to −4 anterior-posterior from the bregma, 4 mm laterally from the sagittal suture). Half of the mice were not further injured to use as control specimen. For the remaining mice a 3 mm diameter piston was centered over the motor cortex approximately +0.5 to −2.5 mm from the bregma and 3 mm lateral to the sagittal suture. Using a stereotaxic impactor (Impact One, myNeuroLab.com), the piston was accelerated at a speed of 3 m/sec to an impact depth of 1 mm below the cortical surface. After 24 h, mice were euthanized and brain and eyes were collected. Retinas were extracted, stained with DAPI, Compound 1, and 6E10 antibody, and compared.\nRetinas were mounted on slides and washed with phosphate-buffered saline (PBS) two times for five minutes each time. Retinas were exposed to 98% formic acid for one minute then washed two times with distilled water for five minutes each time. The retinas were then equilibrated in 1×PBS for 15 minutes. Retinas were exposed to 10% goat/donkey serum in 1× phosphate-buffered saline with Tween® 20 (PBST) for 1 h. Retinas were then incubated with […] in 10% goat serum in 1×PBST at 4° C. overnight. […]"}, "[5]": {"molecular_target": "T1, Aβ deposits in retina (Mus musculus, UniProt P12023)", "T1 construct": "denotes peptides of about 36 to 43 amino acids; from tissue; host or cells: mouse retina dissected 24 h after CCI", "T1 sequence (P12023 672-713 limits assumed)": "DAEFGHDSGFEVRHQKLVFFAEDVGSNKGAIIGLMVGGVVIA", "test": "Ex vivo detection of retinal Aβ aggregation in CCI mouse model (Example 4)", "procedure": "Mice were subjected to a controlled cortical impact (CCI). The CCI model applies a controlled impact to the intact dura after a craniotomy and is a commonly used TBI animal model. Mice were anesthetized, the head was mounted in a stereotaxic frame, and a craniotomy was performed over the right side of the frontal cortex. Using a stereotaxic impactor, mice received an impact on the right side of the frontal cortex using a 3 m/s velocity, 1 mm depth, and 3 mm diameter piston. After injury, the incision was closed with staples, anesthesia was terminated, and the animal was placed in a heated cage to maintain normal core temperature.\nSham injury consisted of exposure to anesthesia, stereotaxic mounting, skin and fascia reflection, and closing of incision with staples. Mice were then euthanized 24 hours after injury and retinal tissue were dissected for further analysis.\nRetina from mice were extracted and stained with Compound 1 along with a 6E10 antibody, a sequence specific antibody for Aβ.\nMice were subjected to a controlled cortical impact (CCI). The CCI model applies a controlled impact to the intact dura after a craniotomy and is a commonly used TBI animal model. Mice were anesthetized, the head was mounted in a stereotaxic frame, and a craniotomy was performed over the right side of the frontal cortex. […]"}}, "note": "Entries after “also recorded” stand apart in the source; their conditions may differ."}
{"smiles": "COCCOCCOCCNC(=O)/C(C#N)=C/c1ccc2cc(N3CCCCC3)ccc2c1", "note": "[Compound 1, (E)-2-cyano-N-(2-(2-(2-methoxyethoxy)ethoxy)ethyl)-3-(6-(piperidin-1l-yl)naphthalen-2-yl)acrylamide]", "values": [{"measurement": "fluorescent visualization / binding of amyloid deposits in flat mounted retina", "setting": "[1]", "result": "dense deposits that were 5-10 μm in diameter could be fluorescently visualized; also recorded: capable of binding to amyloid deposits in ex vivo human retinal tissue"}, {"measurement": "fluorescent labelling of retinal Aβ deposits", "setting": "[2]", "result": "fluoresces amyloid beta in retinal tissue of TBI blast mouse model; also recorded: has the ability to detect retinal amyloids present in a TBI mouse model"}, {"measurement": "fluorescent labelling of retinal Aβ deposits", "setting": "[2]; listed as ASF", "result": "fluorescently labels these retinal deposits"}, {"measurement": "fluorescent labelling of retinal tissue", "setting": "[2]", "result": "No visible fluorescence in normal mouse"}, {"measurement": "fluorescent labelling of retinal tissue", "setting": "[2]; listed as ASF", "result": "does not display any fluorescent enhancement"}, {"measurement": "fluorescent labelling of amyloid beta in brain tissue", "setting": "[3]; TBI blast mouse model", "result": "fluoresces amyloid beta in brain tissue of TBI blast mouse model"}, {"measurement": "fluorescent labelling of brain tissue", "setting": "[3]; normal mouse", "result": "No visible fluorescence in normal mouse"}, {"measurement": "detection of deposited aggregated proteins in retina", "setting": "[4]", "result": "detected; also recorded: colocalized"}, {"measurement": "fluorescent labelling of retinal Aβ deposits", "setting": "[5]; mice that received a CCI, 24 hours after injury, retina ex vivo", "result": "fluorescently labeled these deposits and co-localized with 6E10 immunoreactivity"}, {"measurement": "fluorescence enhancement in retina", "setting": "[5]; uninjured (sham) mouse", "result": "did not display any fluorescence enhancement"}]}
